# Where two headings read alike, the source gives them in different places.
# What was measured:
# [1] = molecular target: VEGFR2 (Homo sapiens, UniProt P35968); test: VEGFR2 inhibition experiment (HTRF KinEASE-TK kit); type: biochemical; details: read-out: Inhibition rate on VEGFR2; for inhibition at 0.03 µM: 30 nM; for inhibition at 0.3 µM: 300 nM
# Description: Experimental method: According to the instructions of the HTRF KinEASE-TK kit (Cisbio), the compounds of the present disclosure were tested for their inhibitory effects on the VEGFR2 enzyme activity. After pre-incubation of the VEGFR2 enzyme and different concentrations of test compounds at room temperature for 30 min, a substrate and adenosine triphosphate (ATP) were added to initiate the reaction. After incubation at room temperature for 40 min, TK antibody-cryptate and streptavidin-XL665 were added, and the test was performed after incubation at room temperature for 45 min. With the solvent group (DMSO) as the negative control and the buffer group (without VEGFR2 enzyme) as the blank control, the relative inhibitory activity percentages (i.e., inhibition rates) of different concentrations of the compounds were computed as per the following formula:
# (§1) Relative inhibitory activity percentage=1−(compound group of different concentrations−blank control)/(negative control−blank control)*100%
# (§2) The relative inhibitory activity percentages of different concentrations of the compounds were plotted with respect to the compound concentrations, and the curve was fitted according to a four-parameter model to compute the IC50 value as per the following formula:
# (§3) y=min+(max−min)/(1+(x/IC50)^(−Hillslope))
# (§4) where y is the relative inhibitory activity percentage, max is the maximum value of the fitted curve, min is the minimum value of the fitted curve, x is the logarithmic concentration of the compound, and Hillslope is the slope of the curve.
# [2] = molecular target: RET-V804M (Homo sapiens, UniProt P07949, V804M); test: RET inhibition experiment (HTRF KinEASE-TK kit), mutant RET-V804M; type: biochemical; details: for IC50: read-out: The IC50 (nM) for inhibiting V804M
# RET-V804M, sequence (P07949 29-1114 V804M): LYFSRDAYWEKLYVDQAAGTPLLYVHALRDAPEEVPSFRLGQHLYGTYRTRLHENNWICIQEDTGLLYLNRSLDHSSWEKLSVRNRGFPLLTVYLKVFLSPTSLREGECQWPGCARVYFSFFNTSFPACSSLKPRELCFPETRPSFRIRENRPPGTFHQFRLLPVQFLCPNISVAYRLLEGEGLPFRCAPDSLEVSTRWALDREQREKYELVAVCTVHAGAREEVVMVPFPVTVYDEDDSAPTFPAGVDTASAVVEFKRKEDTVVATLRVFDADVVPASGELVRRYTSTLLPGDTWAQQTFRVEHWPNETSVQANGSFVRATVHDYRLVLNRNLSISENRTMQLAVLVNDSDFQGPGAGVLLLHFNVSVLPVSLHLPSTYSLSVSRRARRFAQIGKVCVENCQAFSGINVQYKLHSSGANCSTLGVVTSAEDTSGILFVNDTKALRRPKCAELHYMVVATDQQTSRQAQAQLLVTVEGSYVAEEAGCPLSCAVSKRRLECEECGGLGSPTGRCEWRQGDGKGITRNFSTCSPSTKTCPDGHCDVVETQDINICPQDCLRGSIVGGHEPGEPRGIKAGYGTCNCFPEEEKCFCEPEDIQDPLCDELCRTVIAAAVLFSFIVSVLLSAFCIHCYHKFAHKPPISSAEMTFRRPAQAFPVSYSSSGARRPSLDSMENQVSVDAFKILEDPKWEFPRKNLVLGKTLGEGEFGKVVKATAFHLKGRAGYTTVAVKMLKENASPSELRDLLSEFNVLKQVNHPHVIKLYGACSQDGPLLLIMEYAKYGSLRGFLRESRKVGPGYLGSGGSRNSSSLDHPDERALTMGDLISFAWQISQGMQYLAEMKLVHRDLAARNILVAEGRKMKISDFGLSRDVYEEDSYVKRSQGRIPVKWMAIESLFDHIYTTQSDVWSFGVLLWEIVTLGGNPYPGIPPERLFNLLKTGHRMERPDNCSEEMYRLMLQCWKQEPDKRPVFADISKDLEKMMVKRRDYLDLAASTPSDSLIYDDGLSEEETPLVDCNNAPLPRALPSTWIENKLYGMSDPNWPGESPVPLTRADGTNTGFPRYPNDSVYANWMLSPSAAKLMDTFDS
# Description: Experimental method: According to the instructions of the HTRF KinEASE-TK kit (Cisbio), the compounds of the present disclosure were tested for their inhibitory effects on the activity of wild-type RET enzyme, mutant RET enzyme (RET-V804M, RET-V804L, and RET-M918T) and fusion-type RET enzyme (RET-CCDCl6). After pre-incubation of different RET enzymes and different concentrations of the test compounds at room temperature for 30 min, a substrate and adenosine triphosphate (ATP) were added to initiate the reaction. After incubation at room temperature for 40 min, TK antibody-cryptate and streptavidin-XL665 were added, and the test was performed after incubation at room temperature for 45 min. With the solvent group (DMSO) as the negative control and the buffer group (without RET enzyme) as the blank control, the relative inhibitory activity percentages (i.e., inhibition rates) of different concentrations of the compounds were computed as per the following formula:
# as §1, §2, §3, §4
# [3] = 10 nM (Table 2), read-out: Inhibition rate on RET-V804M
# [4] = read-out: Inhibition rate on RET-V804M
# VEGFR2, sequence (P35968 20-1356, species assumed): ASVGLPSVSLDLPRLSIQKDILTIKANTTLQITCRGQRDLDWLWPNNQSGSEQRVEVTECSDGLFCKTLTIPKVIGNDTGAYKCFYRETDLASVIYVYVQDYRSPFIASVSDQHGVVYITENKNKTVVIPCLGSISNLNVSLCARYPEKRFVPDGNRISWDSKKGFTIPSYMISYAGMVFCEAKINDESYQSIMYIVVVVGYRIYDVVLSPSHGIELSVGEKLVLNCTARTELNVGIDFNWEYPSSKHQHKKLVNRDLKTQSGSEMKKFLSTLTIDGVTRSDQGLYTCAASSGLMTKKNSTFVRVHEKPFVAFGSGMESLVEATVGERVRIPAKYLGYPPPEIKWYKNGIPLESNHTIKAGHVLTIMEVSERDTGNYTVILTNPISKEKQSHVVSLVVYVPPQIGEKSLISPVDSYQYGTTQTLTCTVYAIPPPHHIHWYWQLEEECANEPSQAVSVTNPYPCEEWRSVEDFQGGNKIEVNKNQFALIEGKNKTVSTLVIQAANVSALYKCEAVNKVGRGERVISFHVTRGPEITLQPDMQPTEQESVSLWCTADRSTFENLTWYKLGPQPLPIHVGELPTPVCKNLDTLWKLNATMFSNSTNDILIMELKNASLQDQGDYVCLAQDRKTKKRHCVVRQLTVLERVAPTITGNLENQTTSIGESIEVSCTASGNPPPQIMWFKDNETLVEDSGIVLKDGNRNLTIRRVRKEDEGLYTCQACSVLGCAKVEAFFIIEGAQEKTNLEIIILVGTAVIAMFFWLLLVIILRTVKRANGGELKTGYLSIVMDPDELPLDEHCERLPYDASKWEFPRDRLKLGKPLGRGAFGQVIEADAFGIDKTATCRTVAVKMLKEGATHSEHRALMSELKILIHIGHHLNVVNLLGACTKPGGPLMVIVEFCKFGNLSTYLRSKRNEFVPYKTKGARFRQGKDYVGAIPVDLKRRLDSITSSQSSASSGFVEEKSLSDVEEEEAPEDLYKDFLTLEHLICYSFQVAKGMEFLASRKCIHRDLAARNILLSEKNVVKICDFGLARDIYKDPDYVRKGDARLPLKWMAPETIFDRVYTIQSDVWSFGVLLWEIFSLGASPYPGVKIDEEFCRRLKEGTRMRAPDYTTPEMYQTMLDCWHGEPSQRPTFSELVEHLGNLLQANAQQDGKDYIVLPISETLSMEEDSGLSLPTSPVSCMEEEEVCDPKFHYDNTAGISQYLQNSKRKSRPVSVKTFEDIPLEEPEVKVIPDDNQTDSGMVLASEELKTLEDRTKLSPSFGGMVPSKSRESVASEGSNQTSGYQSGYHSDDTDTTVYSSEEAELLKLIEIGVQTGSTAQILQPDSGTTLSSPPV
Structure (SMILES),inhibition at 0.1 µM ([1]; 100 nM) [%],"inhibition at 0.01 µM [2, 3] [%]",other results
"Cc1cc(Nc2cc(C)[nH]n2)nc(-c2ccc(N3CC4CC(C3)N4Cc3ccc(-n4nccc4C(C)(C)O)nc3)nc2)n1 [Compound 136, 2-(1-(5-((3-(5-(4-methyl-6-((5-methyl-1H-pyrazol-3-yl)-amino)pyrimidin-2-yl)pyridin-2-yl)-3,6-diazabicyclo[3.1.1]heptan-6-yl)methyl)pyridin-2-yl)-1H-pyrazol-5-yl)propan-2-ol]",–,–,inhibition at 0.03 µM [1]: 18%; IC50 [2]: 2.35 ± 0.13 nM
"Cc1cc(Nc2cc(C)[nH]n2)nc(-c2ccc(N3CC4CC(C3)N4Cc3ccc(-n4nccc4C(C)C)nc3)nc2)n1 [Compound 12, 2-(6-(6-((6-(5-isopropyl-1H-pyrazol-1-yl)pyridin-3-yl)methyl)-3,6-diazabicyclo[3.1.1]heptan-3-yl)pyridin-3-yl)-6-methyl-N-(5-methyl-1H-pyrazol-3-yl)pyrimidin-4-amine]",–,–,inhibition at 0.3 µM [1]: 62%; IC50 [2]: 6.94 ± 0.78 nM
"Cc1cc(Nc2cc(C)[nH]n2)nc(-c2ccc(N3CC4CC(C3)N4Cc3ccc(-c4cnn(C(C)C)c4)nc3)nc2)n1 [Compound 135, 2-(6-(6-((6-(1-isopropyl-1H-pyrazol-4-yl)pyridin-3-yl)methyl)-3,6-diazabicyclo[3.1.1]heptan-3-yl)pyridin-3-yl)-6-methyl-N-(5-methyl-1H-pyrazol-3-yl)pyrimidin-4-amine]",34,65,–
"Cc1cc(Nc2cc(C)[nH]n2)nc(-c2ccc(N3CC4CC(C3)N4Cc3ccc(-c4ccn[nH]4)nc3)nc2)n1 [Compound 132, 2-(6-(6-((6-(1H-pyrazol-5-yl)pyridin-3-yl)methyl)-3,6-diazabicyclo[3.1.1]heptan-3-yl)pyridin-3-yl)-6-methyl-N-(5-methyl-1H-pyrazol-3-yl)pyrimidin-4-amine]",–,84,inhibition at 0.03 µM [1]: 31%
"Cc1cc(Nc2cc(C)[nH]n2)nc(-c2ccc(N3CC4CC(C3)N4Cc3ccc(-n4cnc(F)c4)nc3)nc2)n1 [Compound 64, 2-(6-(6-((6-(4-fluoro-1H-imidazol-1-yl)pyridin-3-yl)methyl)-3,6-diazabicyclo[3.1.1]heptan-3-yl)pyridin-3-yl)-6-methyl-N-(5-methyl-1H-pyrazol-3-yl)pyrimidin-4-amine]",38,79,–
"Cc1cnn(-c2ccc(CN3C4CC3CN(c3ccc(-c5nc(C)cc(Nc6cc(C)[nH]n6)n5)cn3)C4)cc2)c1 [Compound 88, 6-methyl-2-(6-(6-(4-(4-methyl-1H-pyrazol-1-yl)benzyl)-3,6-diazabicyclo[3.1.1]heptan-3-yl)pyridin-3-yl)-N-(5-methyl-1H-pyrazol-3-yl)pyrimidin-4-amine]",32,62,–
"COc1ccc(CN2CCN(c3ccc(-c4nc(C)cc(Nc5cc(C)[nH]n5)n4)cn3)CC2)cc1 [Compound 23, 2-(6-(4-(4-methoxybenzyl)piperazin-1-yl)pyridin-3-yl)-6-methyl-N-(5-methyl-1H-pyrazol-3-yl)pyrimidin-4-amine]",–,–,"inhibition at 0.1 µM [1]: -10%; inhibition at 0.01 µM [2, 4]: 47%"
"Cc1ccc(CN2C3CC2CN(c2ccc(-c4nc(C)cc(Nc5cc(C)[nH]n5)n4)cn2)C3)cc1 [Compound 80, 6-methyl-N-(5-methyl-1H-pyrazol-3-yl)-2-(6-(6-(4-methylbenzyl)-3,6-diazabicyclo[3.1.1]heptan-3-yl)pyridin-3-yl)pyrimidin-4-amine]",–,–,"inhibition at 0.1 µM [1]: -10%; inhibition at 0.01 µM [2, 4]: 51%"
"Cc1cc(Nc2cc(C)[nH]n2)nc(-c2ccc(N3CCC(Oc4cncc(F)c4)CC3)nc2)n1 [Compound 29, 2-(6-(4-((5-fluoropyridin-3-yl)oxy)piperidin-1-yl)pyridin-3-yl)-6-methyl-N-(5-methyl-1H-pyrazol-3-yl)pyrimidin-4-amine]",–,52,inhibition at 0.3 µM [1]: 47%
"Cc1cc(Nc2cc(C)[nH]n2)nc(-c2ccc(N3CC4CC(C3)N4Cc3ccc(-n4ccc(F)n4)nc3)nc2)n1 [Compound 63, 2-(6-(6-((6-(3-fluoro-1H-pyrazol-1-yl)pyridin-3-yl)methyl)-3,6-diazabicyclo[3.1.1]heptan-3-yl)pyridin-3-yl)-6-methyl-N-(5-methyl-1H-pyrazol-3-yl)pyrimidin-4-amine]",38,65,–
"CCc1ccnn1-c1ccc(CN2C3CC2CN(c2ccc(-c4nc(C)cc(Nc5cc(C)[nH]n5)n4)cn2)C3)cn1 [Compound 46, 2-(6-(6-((6-(5-ethyl-1H-pyrazol-1-yl)pyridin-3-yl)methyl)-3,6-diazabicyclo[3.1.1]heptan-3-yl)pyridin-3-yl)-6-methyl-N-(5-methyl-1H-pyrazol-3-yl)pyrimidin-4-amine]",–,92,inhibition at 0.3 µM [1]: 79%
"Cc1cc(Nc2cc(C)[nH]n2)nc(-c2ccc(N3CC4CC(C3)N4Cc3ccc(-n4ccc(CF)n4)nc3)nc2)n1 [Compound 31, 2-(6-(6-((6-(3-(fluoromethyl)-1H-pyrazol-1-yl)pyridin-3-yl)methyl)-3,6-diazabicyclo[3.1.1]heptan-3-yl)pyridin-3-yl)-6-methyl-N-(5-methyl-1H-pyrazol-3-yl)pyrimidin-4-amine]",–,81,inhibition at 0.03 µM [1]: 17%
"Cc1cc(Nc2cc(C)[nH]n2)nc(-c2ccc(N3CC4CC(C3)N4Cc3ccc(-n4nccc4C)nc3)nc2)n1 [Compound 9, 6-methyl-2-(6-(6-((6-(5-methyl-1H-pyrazol-1-yl)pyridin-3-yl)methyl)-3,6-diazabicyclo[3.1.1]heptan-3-yl)pyridin-3-yl)-N-(5-methyl-1H-pyrazol-3-yl)pyrimidin-4-amine]",–,–,inhibition at 0.3 µM [1]: 69%; IC50 [2]: 5.43 ± 0.91 nM
"Cc1cc(Nc2cc(C)[nH]n2)nc(-c2ccc(N3CC4CC(C3)N4Cc3ccc(-n4nccc4OC4CC4)nc3)nc2)n1 [Compound 30, 2-(6-(6-((6-(5-cyclopropoxy-1H-pyrazol-1-yl)pyridin-3-yl)methyl)-3,6-diazabicyclo[3.1.1]heptan-3-yl)pyridin-3-yl)-6-methyl-N-(5-methyl-1H-pyrazol-3-yl)pyrimidin-4-amine]",–,88,inhibition at 0.03 µM [1]: 51%
"COc1ccc(F)c(CN2C3CC2CN(c2ccc(-c4nc(C)cc(Nc5cc(C)[nH]n5)n4)cn2)C3)c1 [Compound 96, 2-(6-(6-(2-fluoro-5-methoxybenzyl)-3,6-diazabicyclo[3.1.1]heptan-3-yl)pyridin-3-yl)-6-methyl-N-(5-methyl-1H-pyrazol-3-yl)pyrimidin-4-amine]",4,–,"inhibition at 0.1 µM ([2]; 100 nM (Table 2), read-out: Inhibition rate on RET-V804M): 84%"
"Cc1cc(Nc2cc(C)[nH]n2)nc(-c2ccc(N3CC4CC(C3)N4Cc3ccc(F)cc3)nc2)n1 [Compound 83, 2-(6-(6-(4-fluorobenzyl)-3,6-diazabicyclo[3.1.1]heptan-3-yl)pyridin-3-yl)-6-methyl-N-(5-methyl-1H-pyrazol-3-yl)pyrimidin-4-amine]",18,56,–
Cc1cc(Nc2cc(C)[nH]n2)nc(-c2ccc(N3CC4CC(C3)N4Cc3ccc(-n4cc5c(n4)CCC5)nc3)nc2)n1 [Compound 25],–,–,inhibition at 0.3 µM [1]: 53%; IC50 [2]: 6.29 ± 0.9 nM
"CCOc1ccc(CN2C3CC2CN(c2ccc(-c4nc(C)cc(Nc5cc(C)[nH]n5)n4)cn2)C3)cc1 [Compound 41, 2-(6-(6-(4-ethoxybenzyl)-3,6-diazabicyclo[3.1.1]heptan-3-yl)pyridin-3-yl)-6-methyl-N-(5-methyl-1H-pyrazol-3-yl)pyrimidin-4-amine]",22,64,–
"Cc1cc(Nc2cc(C)[nH]n2)nc(-c2ccc(N3CC4CC(C3)N4Cc3ccc(-c4ccc(F)[nH]4)nc3)nc2)n1 [Compound 131, 2-(6-(6-((6-(5-fluoro-1H-pyrrol-2-yl)pyridin-3-yl)methyl)-3,6-diazabicyclo[3.1.1]heptan-3-yl)pyridin-3-yl)-6-methyl-N-(5-methyl-1H-pyrazol-3-yl)pyrimidin-4-amine]",–,72,inhibition at 0.03 µM [1]: 50%
"Cc1cnn(-c2ccc(CN3C4CC3CN(c3ccc(-c5nc(C)cc(Nc6cc(C)[nH]n6)n5)cn3)C4)cn2)c1 [Compound 62, 6-methyl-2-(6-(6-((6-(4-methyl-1H-pyrazol-1-yl)pyridin-3-yl)methyl)-3,6-diazabicyclo[3.1.1]heptan-3-yl)pyridin-3-yl)-N-(5-methyl-1H-pyrazol-3-yl)pyrimidin-4-amine]",62,–,IC50 [2]: 4.53 ± 1.23 nM

# Source: patent publication US20220144847A1, “HETEROCYCLIC COMPOUND, PHARMACEUTICAL COMPOSITION COMPRISING SAME, PREPARATION METHOD THEREFOR, AND USE THEREOF” (Sichuan Kelun-Biotech Biopharmaceutical Co., Ltd., priority 2019, published 2022)
